Experimental data: US20230346961A1, “GLP-1 AND GIP RECEPTOR CO-AGONISTS” (Novo Nordisk A/S, priority 2020, published 2023)
Starred links: 1 amine or outer side, 2 acyl side, 3 side chain; linkers in the order of their positions; H or OH if unused. Non-standard residues stand in square brackets, D forms with d. Residues, ends and D or L forms follow the SMILES beside them. Groups on a side chain read outwards from the residue. *: point of attachment. C20 diacid = O=C(O)CCCCCCCCCCCCCCCCCCC(=O)*; γGlu = O=C(O)[C@H](CCC(=O)[*:2])N[*:1]; εLys = N[C@@H](CCCCN[*:1])C(=O)[*:2]; Trx = NC[C@H]1CC[C@H](C(=O)O)CC1; AEEA = NCCOCCOCC(=O)O; Aib = CC(C)(N)C(=O)O

Columns and labels:
mouse GLP-1 receptor = biological target: T1, mouse GLP-1 receptor (Mus musculus, UniProt O35659)
T1 sequence (O35659 22-463): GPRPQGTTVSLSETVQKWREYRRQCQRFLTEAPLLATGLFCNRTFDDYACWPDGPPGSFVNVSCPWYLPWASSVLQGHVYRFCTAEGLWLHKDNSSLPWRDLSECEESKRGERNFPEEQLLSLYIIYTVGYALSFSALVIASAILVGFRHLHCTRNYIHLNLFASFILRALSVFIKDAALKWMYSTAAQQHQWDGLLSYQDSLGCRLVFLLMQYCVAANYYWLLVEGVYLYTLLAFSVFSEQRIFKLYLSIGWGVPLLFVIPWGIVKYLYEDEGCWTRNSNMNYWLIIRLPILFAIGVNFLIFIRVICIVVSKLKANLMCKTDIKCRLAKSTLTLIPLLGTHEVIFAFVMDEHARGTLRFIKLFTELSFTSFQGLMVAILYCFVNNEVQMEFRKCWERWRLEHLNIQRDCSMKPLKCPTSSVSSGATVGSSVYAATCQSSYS

mouse GIP receptor = biological target: T2, mouse GIP receptor (Mus musculus, UniProt Q0P543); experiment: cell-based
T2 sequence (Q0P543 19-460): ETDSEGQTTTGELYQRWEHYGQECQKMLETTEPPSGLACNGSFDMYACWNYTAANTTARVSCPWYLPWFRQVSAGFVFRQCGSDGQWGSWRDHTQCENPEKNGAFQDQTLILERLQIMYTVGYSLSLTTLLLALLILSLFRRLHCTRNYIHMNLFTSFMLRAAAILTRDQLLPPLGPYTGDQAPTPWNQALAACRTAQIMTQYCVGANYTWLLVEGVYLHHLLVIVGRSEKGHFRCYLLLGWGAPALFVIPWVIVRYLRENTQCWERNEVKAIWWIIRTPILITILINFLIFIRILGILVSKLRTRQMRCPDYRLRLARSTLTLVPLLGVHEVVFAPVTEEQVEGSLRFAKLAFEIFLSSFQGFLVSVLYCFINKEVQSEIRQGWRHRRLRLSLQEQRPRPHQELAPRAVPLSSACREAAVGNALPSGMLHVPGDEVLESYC

human GLP-1 receptor = human GLP-1 receptor (Homo sapiens, UniProt P43220); experiment: cell-based; settings: hGLP-1R
human glucagon receptor = human glucagon receptor (Homo sapiens, UniProt P47871); experiment: cell-based
Chain of human glucagon receptor (P47871 26-477): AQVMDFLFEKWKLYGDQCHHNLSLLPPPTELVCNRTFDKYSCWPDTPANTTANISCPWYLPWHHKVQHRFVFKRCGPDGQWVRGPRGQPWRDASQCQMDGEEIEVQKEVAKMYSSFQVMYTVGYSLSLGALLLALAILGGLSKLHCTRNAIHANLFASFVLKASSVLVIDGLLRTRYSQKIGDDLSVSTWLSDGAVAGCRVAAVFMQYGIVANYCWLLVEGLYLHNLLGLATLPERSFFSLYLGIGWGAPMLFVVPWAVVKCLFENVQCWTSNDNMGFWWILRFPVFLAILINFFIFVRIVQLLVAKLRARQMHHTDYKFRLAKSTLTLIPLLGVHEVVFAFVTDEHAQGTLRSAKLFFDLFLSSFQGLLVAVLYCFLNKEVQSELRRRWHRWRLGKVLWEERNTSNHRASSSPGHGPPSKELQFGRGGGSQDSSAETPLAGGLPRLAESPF

Chain of human GLP-1 receptor (P43220 24-463): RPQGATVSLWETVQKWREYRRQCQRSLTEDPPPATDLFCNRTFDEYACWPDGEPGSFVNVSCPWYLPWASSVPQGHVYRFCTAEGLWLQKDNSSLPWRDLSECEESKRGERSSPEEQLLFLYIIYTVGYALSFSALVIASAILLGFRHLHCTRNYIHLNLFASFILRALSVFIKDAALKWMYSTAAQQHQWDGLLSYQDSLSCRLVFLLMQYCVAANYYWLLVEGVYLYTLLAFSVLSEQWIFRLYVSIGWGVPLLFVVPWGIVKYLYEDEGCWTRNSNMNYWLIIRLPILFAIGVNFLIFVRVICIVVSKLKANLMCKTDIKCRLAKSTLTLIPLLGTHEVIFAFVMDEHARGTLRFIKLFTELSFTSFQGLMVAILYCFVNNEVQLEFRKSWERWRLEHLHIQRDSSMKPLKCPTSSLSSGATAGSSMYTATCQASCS

## CC[C@H](C)[C@H](NC(=O)[C@H](CO)NC(=O)[C@H](Cc1ccc(O)cc1)NC(=O)[C@H](CC(=O)O)NC(=O)[C@H](CO)NC(=O)[C@@H](NC(=O)[C@H](Cc1ccccc1)NC(=O)[C@@H](NC(=O)CNC(=O)[C@H](CCC(=O)O)NC(=O)C(C)(C)NC(=O)[C@@H](N)Cc1ccc(O)cc1)[C@@H](C)O)[C@@H](C)O)C(=O)N[C@@H](Cc1ccc(O)cc1)C(=O)N[C@@H](CC(C)C)C(=O)N[C@@H](CCC(=O)O)C(=O)N[C@@H](CCCCN)C(=O)N[C@@H](CCCCNC(=O)[C@@H](N)CCCCNC(=O)[C@@H](N)CCCCNC(=O)CC[C@H](NC(=O)[C@H]1CC[C@H](CNC(=O)CCCCCCCCCCCCCCCCCCC(=O)O)CC1)C(=O)O)C(=O)N[C@@H](C)C(=O)N[C@@H](C)C(=O)NC(C)(C)C(=O)N[C@@H](CCC(=O)O)C(=O)N[C@@H](Cc1ccccc1)C(=O)N[C@H](C(=O)N[C@@H](CC(N)=O)C(=O)N[C@@H](Cc1c[nH]c2ccccc12)C(=O)N[C@@H](CC(C)C)C(=O)N[C@@H](CC(C)C)C(=O)N[C@@H](C)C(=O)NCC(=O)NCC(=O)N1CCC[C@H]1C(=O)N[C@@H](CO)C(=O)N[C@@H](CO)C(=O)NCC(=O)N[C@@H](C)C(=O)N1CCC[C@H]1C(=O)N1CCC[C@H]1C(=O)N1CCC[C@H]1C(=O)N[C@@H](CO)C(N)=O)C(C)C [Compound 23] (H-Y[Aib]EGTFTSDYSIYLEKK([εLys-εLys-γGlu-Trx-C20 diacid])AA[Aib]EFVNWLLAGGPSSGAPPPS-NH2; N-terminus assumed)
Mouse GLP-1 receptor
  EC50: 0.0037 nM
Mouse GIP receptor
  EC50: 0.0175 nM
Human GLP-1 receptor; CRE Luc 0% HSA EC50, 0% HSA
  EC50: 0.004 nM
Human GLP-1 receptor; CRE Luc 1% HSA EC50, 1% HSA
  EC50: 0.178 nM
Human glucagon receptor
  EC50: > 10 nM

## CC[C@H](C)[C@H](NC(=O)[C@H](CO)NC(=O)[C@H](Cc1ccc(O)cc1)NC(=O)[C@H](CC(=O)O)NC(=O)[C@H](CO)NC(=O)[C@@H](NC(=O)[C@H](Cc1ccccc1)NC(=O)[C@@H](NC(=O)CNC(=O)[C@H](CCC(=O)O)NC(=O)C(C)(C)NC(=O)[C@@H](N)Cc1ccc(O)cc1)[C@@H](C)O)[C@@H](C)O)C(=O)N[C@@H](Cc1ccc(O)cc1)C(=O)N[C@@H](CC(C)C)C(=O)N[C@@H](CCC(=O)O)C(=O)N[C@@H](CCCCN)C(=O)N[C@@H](CCC(N)=O)C(=O)N[C@@H](C)C(=O)N[C@@H](C)C(=O)NC(C)(C)C(=O)N[C@@H](CCCCNC(=O)[C@@H](N)CCCCNC(=O)[C@@H](N)CCCCNC(=O)CC[C@H](NC(=O)[C@H]1CC[C@H](CNC(=O)CCCCCCCCCCCCCCCCCCC(=O)O)CC1)C(=O)O)C(=O)N[C@@H](Cc1ccccc1)C(=O)N[C@H](C(=O)N[C@@H](CCC(N)=O)C(=O)N[C@@H](Cc1c[nH]c2ccccc12)C(=O)N[C@@H](CC(C)C)C(=O)N[C@@H](CC(C)C)C(=O)N[C@@H](CCC(=O)O)C(=O)NCC(=O)NCC(=O)N1CCC[C@H]1C(=O)N[C@@H](CO)C(=O)N[C@@H](CO)C(=O)NCC(=O)N[C@@H](C)C(=O)N1CCC[C@H]1C(=O)N1CCC[C@H]1C(=O)N1CCC[C@H]1C(=O)N[C@@H](CO)C(N)=O)C(C)C [Compound 24] (H-Y[Aib]EGTFTSDYSIYLEKQAA[Aib]K([εLys-εLys-γGlu-Trx-C20 diacid])FVQWLLEGGPSSGAPPPS-NH2; N-terminus assumed)
Mouse GLP-1 receptor
  EC50: 0.0099 nM
Mouse GIP receptor
  EC50: 0.0405 nM
Human GLP-1 receptor; CRE Luc 0% HSA EC50, 0% HSA
  EC50: 0.0047 nM
Human GLP-1 receptor; CRE Luc 1% HSA EC50, 1% HSA
  EC50: 0.114 nM
Human glucagon receptor
  EC50: > 10 nM

## CC[C@H](C)[C@H](NC(=O)[C@H](CO)NC(=O)[C@H](Cc1ccc(O)cc1)NC(=O)[C@H](CC(=O)O)NC(=O)[C@H](CO)NC(=O)[C@@H](NC(=O)[C@H](Cc1ccccc1)NC(=O)[C@@H](NC(=O)CNC(=O)[C@H](CCC(=O)O)NC(=O)C(C)(C)NC(=O)[C@@H](N)Cc1ccc(O)cc1)[C@@H](C)O)[C@@H](C)O)C(=O)N[C@@H](Cc1ccc(O)cc1)C(=O)N[C@@H](CC(C)C)C(=O)N[C@@H](CCC(=O)O)C(=O)N[C@@H](CCCCNC(=O)COCCOCCNC(=O)COCCOCCNC(=O)CC[C@H](NC(=O)CCCCCCCCCCCCCCCCCCC(=O)O)C(=O)O)C(=O)N[C@@H](CCC(N)=O)C(=O)N[C@@H](C)C(=O)N[C@@H](C)C(=O)NC(C)(C)C(=O)N[C@@H](CCC(=O)O)C(=O)N[C@@H](Cc1ccccc1)C(=O)N[C@H](C(=O)N[C@@H](CC(N)=O)C(=O)N[C@@H](Cc1c[nH]c2ccccc12)C(=O)N[C@@H](CC(C)C)C(=O)N[C@@H](CC(C)C)C(=O)N[C@@H](C)C(=O)NCC(=O)NCC(=O)N1CCC[C@H]1C(=O)N[C@@H](CO)C(=O)N[C@@H](CO)C(=O)NCC(=O)N[C@@H](C)C(=O)N1CCC[C@H]1C(=O)N1CCC[C@H]1C(=O)N1CCC[C@H]1C(=O)N[C@@H](CO)C(N)=O)C(C)C [Compound 29] (H-Y[Aib]EGTFTSDYSIYLEK([AEEA-AEEA-γGlu-C20 diacid])QAA[Aib]EFVNWLLAGGPSSGAPPPS-NH2; N-terminus assumed)
Mouse GLP-1 receptor
  EC50: 0.0018 nM
Mouse GIP receptor
  EC50: 0.051 nM
Human GLP-1 receptor; CRE Luc 0% HSA EC50, 0% HSA
  EC50: 0.0062 nM
Human GLP-1 receptor; CRE Luc 1% HSA EC50, 1% HSA
  EC50: 0.429 nM
Human glucagon receptor
  EC50: > 10 nM

## CC[C@H](C)[C@H](NC(=O)[C@H](CO)NC(=O)[C@H](Cc1ccc(O)cc1)NC(=O)[C@H](CC(=O)O)NC(=O)[C@H](CO)NC(=O)[C@@H](NC(=O)[C@H](Cc1ccccc1)NC(=O)[C@@H](NC(=O)CNC(=O)[C@H](CCC(=O)O)NC(=O)C(C)(C)NC(=O)[C@@H](N)Cc1ccc(O)cc1)[C@@H](C)O)[C@@H](C)O)C(=O)N[C@@H](Cc1ccc(O)cc1)C(=O)N[C@@H](CC(C)C)C(=O)N[C@@H](CCC(=O)O)C(=O)N[C@@H](CCCCN)C(=O)N[C@@H](CCCCNC(=O)[C@@H](N)CCCCNC(=O)[C@@H](N)CCCCNC(=O)CC[C@H](NC(=O)CCCCCCCCCCCCCCCCCCC(=O)O)C(=O)O)C(=O)N[C@@H](C)C(=O)N[C@@H](C)C(=O)NC(C)(C)C(=O)N[C@@H](CCC(=O)O)C(=O)N[C@@H](Cc1ccccc1)C(=O)N[C@H](C(=O)N[C@@H](CC(N)=O)C(=O)N[C@@H](Cc1c[nH]c2ccccc12)C(=O)N[C@@H](CC(C)C)C(=O)N[C@@H](CC(C)C)C(=O)N[C@@H](C)C(=O)NCC(=O)NCC(=O)N1CCC[C@H]1C(=O)N[C@@H](CO)C(=O)N[C@@H](CO)C(=O)NCC(=O)N[C@@H](C)C(=O)N1CCC[C@H]1C(=O)N1CCC[C@H]1C(=O)N1CCC[C@H]1C(=O)N[C@@H](CO)C(N)=O)C(C)C [Compound 31] (H-Y[Aib]EGTFTSDYSIYLEKK([εLys-εLys-γGlu-C20 diacid])AA[Aib]EFVNWLLAGGPSSGAPPPS-NH2; N-terminus assumed)
Mouse GLP-1 receptor
  EC50: 0.0013 nM
Mouse GIP receptor
  EC50: 0.0134 nM
Human GLP-1 receptor; CRE Luc 0% HSA EC50, 0% HSA
  EC50: 0.0019 nM
Human GLP-1 receptor; CRE Luc 1% HSA EC50, 1% HSA
  EC50: 0.0543 nM
Human glucagon receptor
  EC50: 9.6 nM
